Experimental data as given in publication PMC10302753, “Natural-Product-Inspired Microwave-Assisted Synthesis of Novel Spirooxindoles as Antileishmanial Agents: Synthesis, Stereochemical Assignment, Bioevaluation, SAR, and Molecular Docking Studies” (Molecules, 2023).
Entries after “also recorded” stand apart in the source; their conditions may differ. Where two headings read alike, the source gives them in different places.

Experiments:
[1] = tested on: promastigotes of Leishmania donovani (MHOM/IN/1983/AG83); test: In vitro antileishmanial activity, Trypan blue dye exclusion method; format: cell-based; settings: 72 h, L. donovani promastigotes, 22 ± 1 °C, 50% growth inhibition, read-out: IC50 Using Trypan Blue Dye Exclusion Method
Method: The compounds (23a–f, 24a–f, and 25a–g) were initially screened for their in vitro antileishmanial activity against promastigotes of Leishmania donovani (MHOM/IN/1983/AG83) utilizing the Trypan blue dye exclusion method and the plasmid relaxation assay using amphotericin B and camphothesin as standard reference drugs, respectively.
The promastigotes were harvested from the culture vials, counted, and 2 × 10^6 cells/well were seeded in a 48-well culture plate. The antileishmanial screening of all the derivatives, 23a–f, 24a–f, and 25a–g, as well as the positive control, was performed at various concentrations (2 μg/mL, 4 μg/mL, 8 μg/mL, and 16 μg/mL) added in triplicate. The plate was incubated at 22 ± 1 °C in the BOD incubator for 72 h. After 72 h, each well was counted for the number of viable parasites using the Trypan blue dye exclusion method, and the percentage growth inhibition was calculated by using the formula: Percentage viability=No. of viable cells in treated well/No. of viable cells in blank well×100 Percentage growth inhibition = 100 − percentage viability […]
The IC50 (inhibitory concentration at which 50% of the parasites were dead) value was obtained by plotting a linear dose–response curve in SPSS software (Version 23). […]
Parasite strain and culture conditions:
The SSG-sensitive Indian strain of Leishmania donovani (MHOM/IN/1983/AG83) obtained from CSIR-IICB, Kolkata, was used for the study. The promastigotes of these strains were maintained in Medium 199+10% FCS (Foetal Calf Serum) by serial sub-culturing at an ambient temperature of 22±1°C every 72 […]
In vitro antileishmanial activity
Trypan blue dye exclusion method
For carrying out the antileishmanial activity in vitro, promastigotes of Leishmania donovani were used.
The promastigotes were harvested from the culture vials, counted, and 2 × 10^6 cells/well were seeded in a 48-well culture plate. Further, compounds at various concentrations (2 μg/mL, 4 μg/mL, 8 μg/mL and 16 μg/mL) were added in triplets. No drug was added to the well serving as a blank, and amphotericin B was added to the well serving as the positive control. The plate was incubated at 22 ± 1°C in the BOD incubator for 72 hours. After 72 hours, each well was counted for the number of viable parasites using the trypan blue dye exclusion method, and the percentage growth inhibition was calculated by using the formula:
Percentage growth inhibition = 100 – percentage viability
IC50 (inhibitory concentration at which 50% of the parasites were dead) was obtained by plotting a linear dose-response curve in SPSS software (Version 23). […]
8.0) after being stained with ethidium bromide (0.5 µg/mL). Plotting the percentage of supercoiled DNA versus drug concentrations allowed researchers to determine the 50% inhibition concentration (IC50) values of LTopIB inhibition as the 50% reduction of supercoiled DNA.
Characterization data of spirooxindole derivatives (23a-f, 24a-f, 25a-g).
(1'S,2'R,3S,7a'S)-1'-(4-chlorophenyl)-2'-(4-fluorobenzoyl)-5-methyl-1',2',5',6',7',7a'-hexahydrospiro [indoline-3,3'-pyrrolizin]-2-one (23a): The product was synthesized utilizing the microwave-irradiated approach, and purified by column chromatography over silica gel using hexane/EtOAc (8:2) as an eluent; Physical Appearance: light yellow solid; Yield: 98%; Rf (EtOAc/hexane: 1:1) = 0.48; m.p. 182-184 °C; […]
(1'S,2'R,3S,7a'S)-5-fluoro-2'-(4-fluorobenzoyl)-1'-(4-methoxyphenyl)-1',2',5',6',7',7a'-hexahydro spiro[indoline-3,3'-pyrrolizin]-2-one (23b): The product was synthesized utilizing the microwave-irradiated approach, and purified by column chromatography over silica gel using hexane/EtOAc (7:3) as an eluent; Physical Appearance: light yellow solid; Yield: 66%; Rf (EtOAc/hexane: 1:1) = 0.45; m.p. 161-

[2] = target: Leishmania DNA topoisomerase type IB (purified recombinant LTopIB) (Leishmania donovani, UniProt A0A3Q8IHS4+Q8WQM6); test: Plasmid relaxation assay (relaxation of supercoiled plasmid DNA); format: biochemical; settings: for LTopIB inhibition, result in words: recombinant enzyme in vitro, initial test at 100 µM, then dose/response
Method: The relaxation of supercoiled plasmid DNA is the method used for the determination of LTopIB activity. Various doses of each compound were treated with one unit of pure LTopIB (the enzyme to relax 0.5 µg of supercoiled DNA for 30 min at 37 °C) for 20 min at 4 °C. The reaction mixture, including 0.5 μg of supercoiled pBluescript SK(−) plasmid, 10 mM Tris-HCl buffer pH 7.5, 5 mM MgCl2, 0.1 mM EDTA, 15 µg/mL of bovine serum albumin, and 150 mM KCl, was then added in a final volume of 20 μL. After 30 min at 37 °C, the reaction mixtures were stopped by adding 4 μL of loading buffer, which included 5% sarkosyl, 0.12% bromophenol blue, and 25% glycerol. By electrophoresis, the topoisomers were separated on 1% agarose gels and electrophoresed at 2 V/cm for 16 h in a 0.1 M Tris-borate-EDTA buffer (pH 8.0) after being stained with ethidium bromide (0.5 µg/mL). Plotting the percentage of supercoiled DNA versus drug concentrations allowed researchers to determine the 50% inhibition concentration (IC50) values of LTopIB inhibition as the 50% reduction of supercoiled DNA [72].
Because of the presence of spirooxindole systems in the structure of these compounds, we aimed to assess their inhibitory potential on purified recombinant LTopIB measuring the relaxation of supercoiled plasmid DNA. In this regard, all spirooxindole derivatives were assessed for LTopIB inhibition through the prevention of DNA relaxation in a circular DNA plasmid. […] After this initial test, potential inhibitor dose/response curves were performed to obtain their IC50 values. […]
The relaxation of supercoiled plasmid DNA is the method used for the determination of LTopIB activity.
Various doses of each compound were treated with one unit of pure LTopIB (the enzyme to relax 0.5 µg of supercoiled DNA for 30 min at 37 °C) for 20 min at 4 °C. The reaction mixture including 0.5 μg of supercoiled pBluescript SK(−) plasmid, 10 mM Tris-HCl buffer pH 7.5, 5 mM MgCl2, 0.1 mM EDTA, 15 µg/mL bovine serum albumin, and 150 mM KCl was then added in a final volume of 20 μL. After 30 minutes at 37 °C, the reaction mixtures were stopped by adding 4 μL of loading buffer, which included 5% sarkosyl, 0.12% bromophenol blue, and 25% glycerol. By electrophoresis, the topoisomers were separated in 1% agarose gels were electrophoresed at 2 V/cm for 16 hours in a 0.1 M Tris-borate-EDTA buffer (pH 8.0) after being stained with ethidium bromide (0.5 µg/mL). Plotting the percentage of supercoiled DNA versus drug concentrations allowed researchers to determine the 50% inhibition concentration (IC50) values of LTopIB inhibition as the 50% reduction of supercoiled DNA. […]

[3] = LTopIB inhibition, 50% reduction of supercoiled DNA, read-out: IC50 Using Plasmid Relaxation Assay

Leishmania DNA topoisomerase type IB (purified recombinant LTopIB), sequence (Q8WQM6 entry or part of it): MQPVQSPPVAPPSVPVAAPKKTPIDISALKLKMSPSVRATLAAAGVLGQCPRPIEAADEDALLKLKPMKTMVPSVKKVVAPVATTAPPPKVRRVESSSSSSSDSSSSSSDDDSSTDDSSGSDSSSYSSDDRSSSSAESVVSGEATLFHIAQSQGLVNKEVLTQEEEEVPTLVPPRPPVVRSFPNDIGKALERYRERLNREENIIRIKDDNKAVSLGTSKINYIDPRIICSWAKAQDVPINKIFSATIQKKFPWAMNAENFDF
Leishmania DNA topoisomerase type IB (purified recombinant LTopIB), sequence (A0A3Q8IHS4 entry or part of it): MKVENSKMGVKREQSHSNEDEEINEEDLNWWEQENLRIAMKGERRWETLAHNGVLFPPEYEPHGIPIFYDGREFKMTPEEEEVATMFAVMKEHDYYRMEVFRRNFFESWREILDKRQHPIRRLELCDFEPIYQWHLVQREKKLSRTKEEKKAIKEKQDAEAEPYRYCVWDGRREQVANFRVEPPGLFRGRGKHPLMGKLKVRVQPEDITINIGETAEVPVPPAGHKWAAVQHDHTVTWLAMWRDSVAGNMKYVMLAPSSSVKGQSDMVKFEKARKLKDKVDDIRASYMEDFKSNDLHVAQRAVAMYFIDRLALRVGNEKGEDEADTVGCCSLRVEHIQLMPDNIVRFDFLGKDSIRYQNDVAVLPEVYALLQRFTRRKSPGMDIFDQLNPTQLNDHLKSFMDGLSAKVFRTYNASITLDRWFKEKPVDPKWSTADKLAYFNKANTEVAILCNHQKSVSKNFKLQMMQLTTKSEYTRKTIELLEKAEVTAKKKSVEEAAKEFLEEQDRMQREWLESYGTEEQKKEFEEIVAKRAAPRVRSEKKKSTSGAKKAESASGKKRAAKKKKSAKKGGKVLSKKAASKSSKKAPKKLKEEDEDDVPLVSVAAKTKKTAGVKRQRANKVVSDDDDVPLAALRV

melting point | IC50 [2, 3] | SMILES | IC50 ([1]; Leishmania donovani) | IC50 [1] | LTopIB inhibition, result in words [2] | IC50 [2]
– | 17.3 µM | COc1ccc2c(c1)[C@]1(N[C@@H](Cc3ccccc3)[C@H](c3ccc(Cl)cc3)[C@H]1C(=O)c1ccc([N+](=O)[O-])cc1)C(=O)N2 [24a] | 2.43 µM | – | showed potential results; also recorded: potent LTopIB inhibitors; also recorded: able to inhibit the recombinant enzyme in vitro | –
121 to 122 °C | 37.6 µM | Cc1ccc(C(=O)[C@@H]2[C@@H](c3ccc(Br)cc3)[C@H](Cc3ccccc3)N[C@@]23C(=O)Nc2ccc([N+](=O)[O-])cc23)cc1 [24b] | ≤ 10 µM | 5.36 µM | – | –
135 to 137 °C | > 100 µM | Cc1ccc2c(c1)[C@]1(N[C@@H](Cc3ccccc3)[C@H](c3ccc(Cl)cc3)[C@H]1C(=O)c1ccc([N+](=O)[O-])cc1)C(=O)N2 [24c] | > 20 µM | – | – | –
104 to 106 °C | > 100 µM | O=C(c1ccc(F)cc1)[C@@H]1[C@@H](c2ccc(Cl)cc2)[C@H](Cc2ccccc2)N[C@@]12C(=O)Nc1ccccc12 [24d] | > 20 µM | – | – | –
– | 15.7 µM | O=C(c1ccc([N+](=O)[O-])cc1)[C@@H]1[C@@H](c2ccc(Cl)cc2)[C@H](Cc2ccccc2)N[C@@]12C(=O)Nc1c(Br)cccc12 [24e] | 0.96 µM | – | showed potential results; also recorded: potent LTopIB inhibitors; also recorded: able to inhibit the recombinant enzyme in vitro | –
– | 19.6 µM | Cc1ccc(C(=O)C2C(c3ccc(Br)cc3)C(Cc3ccccc3)NC23C(=O)Nc2ccc(I)cc23)cc1 (stereo not shown) [24f] | 1.62 µM | – | showed potential results; also recorded: potent LTopIB inhibitors; also recorded: able to inhibit the recombinant enzyme in vitro | –
154 to 156 °C | – | COc1ccc(C2C(Cc3cc4ccccc4[nH]3)NC3(C(=O)Nc4ccc(Br)cc43)C2C(=O)c2ccc(F)cc2)cc1 (stereo not shown) [25a] | – | – | – | –
118 to 120 °C | 89.1 µM | COc1ccc([C@H]2[C@H](Cc3cc4ccccc4[nH]3)N[C@@]3(C(=O)Nc4ccccc43)[C@@H]2C(=O)c2ccc(Br)cc2)cc1 [25b] | > 10 µM | – | – | –
138 to 140 °C | – | O=C(c1ccc(F)cc1)C1C(c2ccc(Cl)cc2)C(Cc2cc3ccccc3[nH]2)NC12C(=O)Nc1ccc(Br)cc12 (stereo not shown) [25c] | – | – | – | –
– | 27.2 µM | COc1ccc(C2C(Cc3c[nH]c4ccccc34)NC3(C(=O)Nc4ccc(F)cc43)C2C(=O)c2ccc(C3CCCCC3)cc2)cc1 (stereo not shown) [25d] | 3.55 µM | – | showed potential results; also recorded: potent LTopIB inhibitors; also recorded: able to inhibit the recombinant enzyme in vitro | –
103 to 105 °C | – | COc1ccc(C2C(Cc3cc4ccccc4[nH]3)NC3(C(=O)Nc4ccc(C)cc43)C2C(=O)c2ccc(F)cc2)cc1 (stereo not shown) [25e] | – | – | – | –
172 to 174 °C | – | O=C(c1ccc(F)cc1)C1C(c2ccc(Cl)cc2)C(Cc2cc3ccccc3[nH]2)NC12C(=O)Nc1ccc([N+](=O)[O-])cc12 (stereo not shown) [25f] | – | – | – | –
142 to 145 °C | – | COc1ccc2c(c1)C1(NC(Cc3cc4ccccc4[nH]3)C(c3ccc(Cl)cc3)C1C(=O)c1ccc(F)cc1)C(=O)N2 (stereo not shown) [25g] | – | – | – | –
– | – | C[C@@H]1[C@H](O)[C@@H](C)/C=C/C=C/C=C/C=C/C=C/C=C/C=C/[C@H](O[C@@H]2O[C@H](C)[C@@H](O)[C@H](N)[C@@H]2O)C[C@@H]2O[C@](O)(C[C@@H](O)C[C@@H](O)[C@H](O)CC[C@@H](O)C[C@@H](O)CC(=O)O[C@H]1C)C[C@H](O)[C@H]2C(=O)O [Amphotericin B, reference compound] | 0.06 µM | – | – | –
– | – | CC[C@@]1(O)C(=O)OCc2c1cc1n(c2=O)Cc2cc3ccccc3nc2-1 [Camptothecin, reference compound] | – | – | – | 3 µM
172 to 174 °C | – | CN(C)c1ccc(/C=N/N2C(=O)C(C#N)=CC23c2ccccc2NC2C=CC=CC23)cc1 (stereo not shown) [compound 18] | – | – | – | –

SMILES | melting point | IC50 [2, 3] | IC50 ([1]; Leishmania donovani) | IC50 [1] | LTopIB inhibition, result in words [2] | IC50 [2]
COc1ccc([C@@H]2[C@@H](C(=O)c3ccc(F)cc3)[C@]3(C(=O)Nc4ccc(F)cc43)N3CCC[C@@H]23)cc1 [23b, (1'S,2'R,3S,7a'S)-5-fluoro-2'-(4-fluorobenzoyl)-1'-(4-methoxyphenyl)-1',2',5',6',7',7a'-hexahydrospiro[indoline-3,3'-pyrrolizin]-2-one] | 161 to 163 °C | > 100 µM | > 20 µM | – | – | –
COc1ccc(C2C3CCCN3C3(C(=O)Nc4ccc(F)cc43)C2C(=O)c2ccc(Br)cc2)cc1 (stereo not shown) [23c] | 126 to 128 °C | > 100 µM | > 20 µM | – | – | –
COc1ccc(C2C3CCCN3C3(C(=O)Nc4ccc(OC)cc43)C2C(=O)c2ccc(Br)cc2)cc1 (stereo not shown) [23d] | 107 to 109 °C | 53.6 µM | ≤ 10 µM | 7.78 µM | – | –
COc1ccc(C2C3CCCN3C3(C(=O)Nc4ccc([N+](=O)[O-])cc43)C2C(=O)c2ccc(Br)cc2)cc1 (stereo not shown) [23e] | 111 to 113 °C | > 100 µM | > 20 µM | – | – | –
O=C(c1ccccc1)[C@@H]1[C@@H](c2ccccc2)[C@@H]2CCCN2[C@@]12C(=O)Nc1ccc(Br)cc12 [23f, (1′S,2′R,3S,7a’S)-2′-benzoyl-5-bromo-1′-phenyl-1′,2′,5′,6′,7′,7a’-hexahydrospiro[indolin-3,3′-pyrrolizin]-2-one] | 175 to 177 °C | > 100 µM | > 20 µM | – | – | –
